Data from paper PMC9035832, “Synthesis and Evaluation of a Non-Peptide Small-Molecule Drug Conjugate Targeting Integrin αVβ3” (Frontiers in Chemistry, 2022).
Numbered stars: 1 amine (or outer) side, 2 acyl side, 3 side chain; on linkers, the order of the positions; unused ones are H or OH. Bridge positions count the residues as written; N and C are the ends. Square brackets hold non-standard residues; d marks the D form. Peptide text beside a SMILES is read from it. I, II: the chains in the order shown. * marks the point of attachment. Dolaproine = CO[C@@H]([C@@H]1CCCN1)[C@@H](C)C(=O)O; Dil = CC[C@H](C)[C@H](NC)[C@@H](CC(=O)O)OC; X1 = O=C(CCCc1cn(CCOCCOCCN[*:1])nn1)[*:2]; PABC = O=C(OCc1ccc(N[*:1])cc1)[*:2]; X2 = C[C@@H](N*)[C@@H](O)c1ccccc1; Suc = O=C(CCC(=O)[*:2])[*:1]; NMeV = CN[C@H](C(=O)O)C(C)C

Legend:
WM115 cells [1] = test: Cell adhesion assay on vitronectin, αVβ3-positive cells; format: cell-based; conditions: adhesion of WM115 cells to vitronectin
Method: WM115 cells were cultivated and used in the MEM Eagle medium (Pan Biotech P04-08500 with 10% fetal bovine serum, 50 μg/ml gentamycin, and 0.5 mM sodium pyruvate) and M21-L cells in the RPMI medium (Pan Biotech P04-16500 with 10% fetal bovine serum, 1% Pen-Strep). A flat-bottom MaxiSorp Nunc 96-well plate was coated with recombinant human vitronectin (100 µl/well, 1 μg/ml, Peprotech) in the PBS buffer (137 mM NaCl, 2.7 mM KCl, 10 mM Na2HPO4, 2 mM KH2PO4, pH 7.4) at 4°C and blocked at the following day by adding a solution of fatty acid free milk powder in PBS buffer (5 w/v %, 100 µl/well) at 4°C. The WM115 and M21-L cells were washed with the PBS buffer, detached with Accutase solution (5 ml, Pan Biotech P10-21100) at 37°C for 5 min, and then diluted with the medium (15 ml). After centrifugation (850 rpm, 6 min), the resulting cell pellet was resuspended with fluorescein diacetate in the medium (fluorescein diacetate 1.5 mg/ml, cell density 5·× 10^5 cells/ml) and incubated for 30 min at 37°C in the dark. The cells were washed twice with the medium and then resuspended in the medium (cell density 5 × 10^5 cells/ml). Afterward, a solution of CaCl2, MnCl2, and MgCl2 (each 100 mM) in the PBS buffer (90 µl) was transferred to the cells and incubated for 30 min on ice in the dark. In the meantime, a dilution series of the compounds in the medium (1:3 dilution) was prepared, and 240 µl were transferred to Eppendorf tubes. Pure medium was used as a positive control. Cell suspension (240 µl) was added to each tube of the dilution series and the control, followed by incubation at 37°C for 30 min in the dark. The assay plate was discharged and washed with 200 µl/well medium. […] Afterward, the assay plate was washed with the medium (3 × 100 µl/well), and finally, the medium (100 µl/well) was added and the fluorescence was measured with a TecanReader (Excitation: 480 nm; Emission: 520 nm). The determined values were plotted and analyzed using OriginPro® 2020b where the inflection point of a DoseResp fit described the IC50 value. […]

M21-L cells = test: Cell adhesion assay on vitronectin, αVβ3-negative cells; format: cell-based; conditions: for IC50: adhesion of M21-L cells to vitronectin, read-out: M21-L (αV−, αVβ3−) IC50, cell adhesion
Method: WM115 cells were cultivated and used in the MEM Eagle medium (Pan Biotech P04-08500 with 10% fetal bovine serum, 50 μg/ml gentamycin, and 0.5 mM sodium pyruvate) and M21-L cells in the RPMI medium (Pan Biotech P04-16500 with 10% fetal bovine serum, 1% Pen-Strep). A flat-bottom MaxiSorp Nunc 96-well plate was coated with recombinant human vitronectin (100 µl/well, 1 μg/ml, Peprotech) in the PBS buffer (137 mM NaCl, 2.7 mM KCl, 10 mM Na2HPO4, 2 mM KH2PO4, pH 7.4) at 4°C and blocked at the following day by adding a solution of fatty acid free milk powder in PBS buffer (5 w/v %, 100 µl/well) at 4°C. The WM115 and M21-L cells were washed with the PBS buffer, detached with Accutase solution (5 ml, Pan Biotech P10-21100) at 37°C for 5 min, and then diluted with the medium (15 ml). After centrifugation (850 rpm, 6 min), the resulting cell pellet was resuspended with fluorescein diacetate in the medium (fluorescein diacetate 1.5 mg/ml, cell density 5·× 10^5 cells/ml) and incubated for 30 min at 37°C in the dark. The cells were washed twice with the medium and then resuspended in the medium (cell density 5 × 10^5 cells/ml). Afterward, a solution of CaCl2, MnCl2, and MgCl2 (each 100 mM) in the PBS buffer (90 µl) was transferred to the cells and incubated for 30 min on ice in the dark. In the meantime, a dilution series of the compounds in the medium (1:3 dilution) was prepared, and 240 µl were transferred to Eppendorf tubes. Pure medium was used as a positive control. Cell suspension (240 µl) was added to each tube of the dilution series and the control, followed by incubation at 37°C for 30 min in the dark. The assay plate was discharged and washed with 200 µl/well medium. Then the cell suspension with different compound concentrations was added to the assay plate (100 µl/well) and incubated for 60 min at 37°C in the dark. Afterward, the assay plate was washed with the medium (3 × 100 µl/well), and finally, the medium (100 µl/well) was added and the fluorescence was measured with a TecanReader (Excitation: 480 nm; Emission: 520 nm). The determined values were plotted and analyzed using OriginPro® 2020b where the inflection point of a DoseResp fit described the IC50 value.
WM115 cells were cultivated and used in MEM Eagle medium (Pan Biotech P04-08500 with 10 % foetal bovine serum, 50 µg/mL gentamycin, 0.5 mM sodium pyruvate) and M21-L cells in RPMI medium (Pan Biotech P04-16500 with 10 % foetal bovine serum, 1 % Pen-Strep). Overnight a flat-bottom MaxiSorp Nunc 96-well plate was coated with recombinant human vitronectin (100 µL/well, 1 µg/mL, Peprotech) in PBS buffer (137 mM NaCl, 2.7 mM KCl, 10 mM Na2HPO4,2 mM KH2PO4, pH 7.4) at 4 °C and blocked at the following day by adding a solution of fatty acid free milk powder in PBS buffer (5 w/v %, 100 µL/well) at 4 °C. […]

[2] = Cell viability assay (resazurin based); conditions: WM115 cells, 3 days incubation, resazurin; read-out: Cytotoxicity IC50
Method: (§1) WM115 cells were cultivated in the MEM medium (with 10% fetal bovine serum, 50 μg/ml gentamycin, and 0.5 mM sodium pyruvate) at 37°C and 5.3% CO2-humidified air in an incubator. The cells were seeded in a sterile flat-bottom cell culture 96-well plate (Sarstedt) in a density of 10,000 cells/well (100 µl/well) and incubated for 1 day as described. A serial dilution (1:3 dilution) of the compounds and the standard (cryptophycin-52) in the medium was prepared and transferred to the assay plate (100 µl/well), followed by incubation for 3 days as described. Afterward, a solution of resazurin (175 μM, 30 µl/well) was added, followed by incubation for 6 h. Subsequently, the fluorescence was measured with a TecanReader (Excitation: 530 nm; Emission: 588 nm) and plotted and analyzed using OriginPro® 2020b where the inflection point of a DoseResp fit described the IC50 value. […]
(§2) WM115 cells were cultivated in MEM medium (with 10 % foetal bovine serum, 50 µg/mL gentamycin, 0.5 mM sodium pyruvate) at 37 °C and 5.3 % CO2-humidified air in an incubator. The cells were seeded in a sterile flat-bottom cell culture 96-well plate (Sarstedt) in a density of 10000 cells/well (100 µL/well) and incubated for 1 day as described. A dilution series (1:3 dilution) of the compounds and the standard (cryptophycin-52) in medium was prepared and transferred to the assay plate (100 µL/well) followed by incubation for 3 d as described. Afterwards a solution of resazurin (175 µM, 30 µL/well) was added followed by incubation for 6 h. Subsequently, the fluorescence was measured with a TecanReader (Excitation: 530 nm; Emission: 588 nm) as well as plotted and analysed using OriginPro® 2020b where the inflection point of a DoseResp fit describes the IC50 value.

WM115 cells [3] = test: Cell viability assay (resazurin based); conditions: for fold less cytotoxic than MMAE: relative to free MMAE; for IC50: 3 days incubation, resazurin, read-out: Cytotoxicity IC50
Method: as §1, §2

CC[C@H](C)[C@@H]([C@@H](CC(=O)N1CCC[C@H]1[C@H](OC)[C@@H](C)C(=O)N[C@H](C)[C@@H](O)c1ccccc1)OC)N(C)C(=O)[C@@H](NC(=O)[C@H](C(C)C)N(C)C(=O)OCc1ccc(NC(=O)[C@H](C)NC(=O)[C@@H](NC(=O)[C@H](CCC(=O)O)NC(=O)CCCc2cn(CCOCCOCCOc3ccc(C(=O)N[C@@H](Cc4ccc(OCCCCCNC5=NCCN5)cc4)C(=O)O)cc3)nn2)C(C)C)cc1)C(C)C [compound 18]
IC50 (WM115 cells [1]): 8.05 ± 0.51 µM | effect on cell adhesion of αVβ3-negative cells (M21-L cells; M21-L cell line, adhesion to vitronectin): no effect | IC50 (M21-L cells): > 100 µM | IC50 [2]: 0.095 ± 0.025 µM | TI (RAD/RGD), targeting index (WM115 cells [3]; TI = [IC50 (17)]/[IC50 (compound)]): 2.8 | fold less cytotoxic than MMAE (WM115 cells [3]): about 50 fold

CC[C@H](C)[C@@H]([C@@H](CC(=O)N1CCC[C@H]1[C@H](OC)[C@@H](C)C(=O)N[C@H](C)[C@@H](O)c1ccccc1)OC)N(C)C(=O)[C@@H](NC(=O)[C@H](C(C)C)N(C)C(=O)OCc1ccc(NC(=O)[C@H](C)NC(=O)[C@@H](NC(=O)[C@H](CCC(=O)O)NC(=O)CCCc2cn(CCOCCOCCNC(=O)CCC(=O)NCCCC[C@@H]3NC(=O)[C@@H](Cc4ccccc4)NC(=O)[C@H](CC(=O)O)NC(=O)[C@H](C)NC(=O)[C@H](CCCNC(=N)N)NC3=O)nn2)C(C)C)cc1)C(C)C [compound 17] (I: [X1]EVA[PABC][NMeV]V[Dil][Dolaproine]-X2 / II: cyclo(AD[dF]KR); linker I:N-II:4 via Suc)
IC50 (WM115 cells [1]): 79.1 ± 1.69 µM | IC50 (M21-L cells): > 100 µM | IC50 (WM115 cells [3]): 0.264 ± 0.0246 µM | fold less cytotoxic than MMAE (WM115 cells [3]): 150 fold

CC[C@H](C)[C@@H]([C@@H](CC(=O)N1CCC[C@H]1[C@H](OC)[C@@H](C)C(=O)N[C@H](C)[C@@H](O)c1ccccc1)OC)N(C)C(=O)[C@@H](NC(=O)[C@H](C(C)C)N(C)C(=O)OCc1ccc(NC(=O)[C@H](C)NC(=O)[C@@H](NC(=O)[C@H](CCC(=O)O)NC(=O)CCCc2cn(CCOCCOCCNC(=O)CCC(=O)NCCCC[C@@H]3NC(=O)[C@@H](Cc4ccccc4)NC(=O)[C@H](CC(=O)O)NC(=O)CNC(=O)[C@H](CCCNC(=N)N)NC3=O)nn2)C(C)C)cc1)C(C)C [compound 16]
IC50 (WM115 cells [1]): 2.65 ± 0.35 µM | IC50 (M21-L cells): > 100 µM | IC50 (WM115 cells [3]): 0.0914 ± 0.0123 µM | fold less cytotoxic than MMAE (WM115 cells [3]): about 50 fold
